“And” between values parts separate entries of the source, which are not always exact repeats. Equal entries are not always repeated.
Key:
[1] = system: AR transcriptional activity in LAPC4-GFP cells; details: 48 h
Method: (§1) (A) Scheme for targeting spiked PCa cells from urine. (B) PCa cells (22Rv1 stably expressing mCherry) were spiked in the urine of an healthy individual. […] Seventy-two hours after infection the cells were imaged by adding D-luciferin substrate and with an exposure time of 5 min per image using the bioluminescence microscope. […] Urine samples from healthy patients were spiked with 250 PCa cells stably expressing GFP (22Rv1-GFP or LAPC4-GFP). Urine was spun down to collect all the cells. These cells were infected with 5×10^5 virus particles of PCA3-Cre-PSEBC-ITSTA. […] Forty-eight hours post treatment imaging was repeated to assess response on the same cells to determine change in luciferase expression. Relative grey intensity=((sum grey intensity per ROI−sum grey intensity of background)÷sum grey intensity at 0 h)×100).
(§2) Urine samples from healthy patients were spiked with 250 PCa cells stably expressing GFP (22Rv1-GFP or LAPC4-GFP). Urine was spun down to collect all the cells. These cells were infected with 5×10^5 virus particles of PCA3-Cre-PSEBC-ITSTA. […] Forty-eight hours post treatment imaging was repeated to assess response on the same cells to determine change in luciferase expression. Relative grey intensity=((sum grey intensity per ROI−sum grey intensity of background)÷sum grey intensity at 0 h)×100).

[2] = system: AR transcriptional activity in 22Rv1-GFP cells; details: DHT 1 nM + antiandrogen 10 μM; 48 h
Method: as §1, §2

[3] = system: AR transcriptional activity in PCa cells from urine/bladder wash of patients
Description: (A) & (B) Images show the H&E staining and IHC using anti-PSA for castration sensitive prostate cancer (CSPC) and castration resistance prostate cancer (CRPC) patients, case 9 and 11 respectively. (C), (D), (E) & (F) Graphs show single cell response to treatment detected with PCA3-Cre-PSEBC-ITSTA in PCa cells from case 9 and 11. Urine/bladder wash from patients post-DRE was sampled and spun down to collect all the cells. These cells were infected with 5×10^5 virus particles of PCA3-Cre-PSEBC-ITSTA. […] Forty-eight hours post treatment imaging was repeated to assess response on the same cells to determine change in expression. Relative grey intensity=((sum grey intensity per ROI−sum grey intensity of background)÷ sum grey intensity at 0 h)×100).
(D) Images show the H&E staining and IHC using anti-PSA for castration resistance prostate cancer (CRPC) patients 11. […] Urine or bladder wash from patients was sampled and spun down to collect all the cells. These cells were infected with 5×10^5 virus particles of PCA3-Cre-PSEBC-ITSTA. […] Forty-eight hours post treatment imaging was repeated to assess response on the same cells.
Forty-eight hours later, single cell bioluminescence was measured again. Single cell response to antiandrogen was determined and cells were considered as resistant if luciferase activity increased despite antiandrogen treatment.
Forty-eight hours post-treatment, single cell bioluminescence was measured again. For case 22, sampling was done as a naïve state before any treatment was received. Similar analysis as cell lines was performed.
The above described procedure for isolation was used to isolate cells from these samples. The samples were then infected with 5×10^5 ivp of PCA3-Cre-PSEBC-TSTA-fl adenovirus. […] Forty-eight hours later, bioluminescence imaging was repeated on the same cells. Percentage of targeted cells=(number bioluminescence positive cells÷number m-cherry positive cells)×100. The sum of gray intensity values was determined for single cells before and after treatment using CellSens software. Relative gray intensity=((sum gray intensity per ROI−sum gray intensity of background)÷sum gray intensity at 0 h)×100).

[4] = system: 22Rv1 cells; assay: Growth curves of PCa cells (cell counter); assay type: cell-based; details: DHT 1 nM + antiandrogen 10 μM; six days of culture
Method: The cells were trypsinized and counted using a cell counter after six days of culture. Relative cell count=number of cells at each time point÷number of cells at 0 h. Data represent technical triplicates±SD.

[5] = system: AR activity in LAPC4-GFP single cells; assay: Single cell treatment response, PSEBC-TSTA bioluminescence microscopy; assay type: cell-based; details: for cells with decrease in fl activity / cells with increase in fl activity: n=10 cells, 48 h treatment, DHT 1 nM or DHT+Enz 1 nM+10 μM
Method: Forty-eight hours post-infection, the cells were imaged after D-luciferin addition. […] GFP biofluorescence imaging was then performed every 5 h to track the cells. After 48 hours of treatment, luciferase imaging was repeated to determine the change in fl expression. […] The corresponding cells tracked and imaged by biofluorescence microscopy is also shown. […] LAPC4-GFP cells were infected with PCA3-3STA, treated and imaged as described in (A). (D) Upper panel: Scheme of the method used to isolate and image spiked PCa cells from blood. […] Every 5 h, GFP biofluorescence imaging was performed to track the cells. At 48 h, luminescence imaging was repeated to determine single cell fl expression changes. Lower panels: Biofluorescence and bioluminescence images of blood spiked-LAPC4-GFP cells transduced with PSEBC-TSTA after PCa cell isolation. (E) Bioluminescence microscopy quantification of single cell responses to AR-antagonists after PSEBC-TSTA transduction of PCa spiked cells (LAPC4-GFP). Relative grey intensity=((sum grey intensity per ROI−sum grey intensity of background)÷sum grey intensity at 0 h)×100. Data represent technical triplicates±SD.
Forty-eight hours after infection, the cells were imaged by adding D-luciferin and an exposure time of 15 secs per image under bioluminescence microscopy. […] GFP biofluorescence imaging was performed every 5 h to track the cells. After 48 hours, luminescence imaging was performed again on the same cells to determine the changes in fl activity. Relative grey intensity was quantified for n=10 cells in each treatment condition before and after treatment. Relative grey intensity=((sum grey intensity per ROI−sum grey intensity of background)÷sum grey intensity at 0 h)×100. Each ROI defines a single cell.
To track the change in position and growth of single cells in which fl activity was measured, biofluorescence microscopy imaging was performed every 5 h for 48 h (GFP-positive cells) after which time bioluminescence imaging and quantification were repeated on the same cells. Sum grey intensity was then determined for single cells before and after treatment using the cellSens soft-ware. Relative grey intensity=((sum grey intensity per ROI−sum grey intensity of background)÷sum grey intensity at 0 h)×100.

[6] = system: AR transcription in LNCaP-GFP cells; assay: Single cell treatment response of spiked cells isolated from blood, PSEBC-TSTA; assay type: cell-based; details: DHT+Enz 1 nM+10 μM; 48 h
Method: FIG. 15 LNCaP cells displaying greater cell-to-cell AR-transcriptional homogeneity upon treatment when compared to LAPC4 cells. […] Forty-eight hours after infection, the cells were imaged after an exposure time of 15 secs per image under bioluminescence microscopy. […] Biofluorescence microscopy imaging was performed for each well for 48 h, with images taken every 5 h to track the cells. Luciferase imaging was performed again on the same cells to determine the change in fl expression.
Blood was collected from a healthy donor and placed in a heparin-coated tube. This study was approved by the Institutional Review Board of the CHU de Quebec Hospital, Quebec, QC, Canada. Informed consent was obtained by the donor for blood sampling. All experiments were performed in accordance with relevant guidelines and regulations. LAPC4 and LNCaP cells were added to the blood sample (500 cells/3 ml of blood), followed by a custom-made RosetteSep cocktail ([…] Technologies, Vancouver, BC, Canada) at a volume of 50 μl per ml. The sample was gently mixed and incubated thereafter at room temperature for 20 min. Fifteen milliliters of Ficoll-Paque Plus (GE healthcare Life Sciences, Mississauga, ON, Canada) were then placed in a 50 ml SepMate tube ([…] Technologies) 31 and blood was poured gently along the walls of the tube onto the Ficoll layer. […]

[7] = system: 22Rv1 cells; assay: Viability assay (resazurin); assay type: cell-based; details: DHT 1 nM + antiandrogen 10 μM
Method: (§3) LAPC4, and 22Rv1 cells were seeded. […] The cells proliferation was measured using resazurin. Relative cell count=(Fluorescence at each time point÷fluorescence at 0 h). Data represents technical triplicates±SD.

[8] = system: LAPC4 cells; assay: Viability assay (resazurin); assay type: cell-based; details: DHT 1 nM + antiandrogen 10 μM
Method: as §3

CC(O)(CS(=O)(=O)c1ccc(F)cc1)C(=O)Nc1ccc(C#N)c(C(F)(F)F)c1 (centres unmarked) [Bic, bicalutamide]
cells with decrease in luciferase activity ([1]; DHT 1 nM + Bic 10 μM): 60% | cells with increase in luciferase activity ([1]; DHT 1 nM + Bic 10 μM): 40% | percentage of cells with increased activity relative to DHT treated group ([1]; DHT 1 nM + antiandrogen 10 μM): 14% | percentage of cells with increased activity relative to DHT treated group [2]: 114% | cells with decrease in PSEBC activity [3]: 80% and 60% | cells with increase in fl expression [3]: 50% | level of AR activity of AR active cells (relative mean luminescence activity per cell) [3]: 418.5% | urine PCa cells with increase in PSEBC promoter dependent fl activity compared to DHT only group [3]: 44% and 67% | urine tumor cells AR active (relative fraction of AR active cells) [3]: 63% | growth inhibition (relative cell count) [4]: not inhibited

C[C@]12CCC(=O)C[C@@H]1CC[C@@H]1[C@@H]2CC[C@]2(C)[C@@H](O)CC[C@@H]12 [DHT, dihydrotestosterone]
cells with decrease in PSEBC activity [3]: 60% | induction of sum of fl activity of ten single cells ([5]; DHT 1 nM, 48 h): 8.8 fold | cells with decrease in fl activity [5]: 20% | cells with increase in fl activity [5]: 80%

CNC(=O)c1ccc(N2C(=S)N(c3ccc(C#N)c(C(F)(F)F)c3)C(=O)C2(C)C)cc1F [Enz, enzalutamide]
single cell AR transcriptional response pattern [6]: homogeneous response | effect on DHT induction of sum of fl activity of ten single cells ([5]; DHT 1 nM + antiandrogen 10 μM, 48 h): inhibited | cells with decrease in fl activity [5]: 70% | cells with increase in fl activity [5]: 30% | growth inhibition (resazurin proliferation) [7]: did not display inhibited growth | growth inhibition (resazurin proliferation) [8]: displayed inhibited growth

— patent publication US20200140951A9, “Transcriptional system and uses thereof for single cell detection” (Université Laval, priority 2017, published 2020)
